This note sets out measurements from the supplement of paper PMC10307832.

Common to all, as to assay: relative viability (nuclei count vs DMSO), 5 days (fraction); higher = more cells survive
Compound in test [1]: C[C@]12O[C@H](C[C@]1(O)CO)n1c3ccccc3c3c4c(c5c6ccccc6n2c5c31)CNC4=O [Lestaurtinib] + CCNC(=O)c1noc(-c2cc(C(C)C)c(O)cc2O)c1-c1ccc(CN2CCOCC2)cc1 [Luminespib] (partner 0.01 µM)
The method in brief: (§1)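 After 5 days of treatment, lung cancer cells in 1536-well plates were fixed and stained in a single step (final 0.05% Triton X-100, 1% formaldehyde, 1 ug/ml Hoechst) and their nuclei counted on 4× images. Treatment had been applied by pin tool the day after seeding as one drug alone or as a fixed anchor-drug dose with five library-drug doses (not always all listed) in √10 steps. Relative viability is the nuclei count of treated wells divided by that of vehicle wells, and values are medians of duplicate plates.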

Compound in test [2]: C[C@]12O[C@H](C[C@]1(O)CO)n1c3ccccc3c3c4c(c5c6ccccc6n2c5c31)CNC4=O [Lestaurtinib] + Nc1ncn([C@H]2C[C@H](O)[C@@H](CO)O2)c(=O)n1 [Decitabine] (partner 2 µM)
The method in brief: as §1

Compound in test [3]: C1/C(=C\C2=CC=CS2)/C(=O)/C(=C/C3=CC=CS3)/C1 + CS(=O)(=O)N1CCN(Cc2cc3nc(-c4cccc5[nH]ncc45)nc(N4CCOCC4)c3s2)CC1 [Pictilisib] (partner 1 µM)
In outline: as §1

Compound in test [4]: C1/C(=C\C2=CC=CS2)/C(=O)/C(=C/C3=CC=CS3)/C1 + Nc1ncn([C@H]2C[C@H](O)[C@@H](CO)O2)c(=O)n1 [Decitabine] (partner 2 µM)
In outline: as §1

Take UMC-11: the relative viability in test [1] (first compound 0.005 µM) turned out to be 0.936; in test [1] (first compound 0.01581 µM), 0.992; in test [1] (first compound 0.05 µM), 0.675; in test [1] (first compound 0.1581 µM) it was 0.286; in test [1] (first compound 0.5 µM), 0.164; in test [2] (first compound 0.005 µM), 0.63. The relative viability in test [2] (first compound 0.01581 µM) was 1.49; in test [2] (first compound 0.05 µM), 0.544; in test [2] (first compound 0.1581 µM) it was 0.241; in test [2] (first compound 0.5 µM), 0.218; in test [3] (first compound 0.2 µM) it was 0.829; in test [3] (first compound 0.6325 µM), 0.962. In addition, the relative viability in test [3] (first compound 2 µM) came out at 0.934; in test [3] (first compound 20 µM) it was 0.758; in test [4] (first compound 0.2 µM), 0.752; in test [4] (first compound 0.6325 µM), 0.653; in test [4] (first compound 2 µM), 0.637; in test [4] (first compound 6.325 µM), 0.513. Besides, the relative viability in test [4] (first compound 20 µM) amounted to 0.515.
